Assay results reported in patent US9981988B2, “Polymorphic forms and co-crystals of a c-Met inhibitor” (AMGEN, INC., priority 2014, dated 2018).

Experiments:
[1] = Dynamic vapor sorption / moisture sorption; assay type: physicochemical
Procedure: Moisture sorption data was collected using a Surface Measurement Systems DVS-Advantage instrument. Equilibrium criteria were set at ±0.002% weight change in 5 minutes with a maximum equilibrium time of 360 minutes.

[2] = Solid state stability under accelerated stability testing conditions, HPLC; assay type: physicochemical
Procedure: High performance liquid chromatography (HPLC) analyses were performed on an Agilent 1100 or 1200 series HPLC equipped with a binary pump, diode-array detector, thermostated column compartment, and auto sampler. Separation and elution was achieved using a reverse-phase column and 0.1% triflouroacetic acid/water/acetonitrile mobile phase.
Solid samples of the free base monohydrate form of Compound M were placed under accelerated stability testing conditions (25° C./60% RH, 40° C./75% RH and 60° C./ambient RH) for 12 weeks.

For COCCOc1cnc2ccn([C@H](C)c3nnc4c(F)cc(-c5cnn(C)c5)cn34)c(=O)c2c1 [free base monohydrate form of Compound M, 6-{(1R)-1-[8-fluoro-6-(1-methyl-1H-pyrazol-4-yl)[1,2,4]triazolo[4,3-a]pyridin-3-yl]ethyl}-3-(2-methoxyethoxy)-1,6-naphthyridin-5(6H)-one], the total weight gain ([1]; between about 40% and about 90% relative humidity) was “about 0.2 wt. %”, the hygroscopicity ([1]; dynamic vapor sorption) was “non-hygroscopic” and the “changes in solid state properties” value ([2]; 25° C./60% RH, 40° C./75% RH and 60° C./ambient RH for 12 weeks) was “no changes in solid state properties were observed”. For the same molecule, the “Area % (215 nm), peak 2, RRT 1.09” value ([2]; Initial) was less than 0.1 Area %, the “Area % (215 nm), peak 3, RRT 1.25” value ([2]; Initial) was less than 0.1 Area % and the “Area % (215 nm), peak 4, RRT 1.53” value ([2]; Initial) was less than 0.1 Area %. For the same molecule, the “Area % (215 nm), peak monohydrate, RRT 1.00” value (shortened to “Area % (215 nm) … RRT 1.00”) ([2]; Initial) was 100.0 Area %, the “Total Impurities, Area % (215 nm)” value ([2]; Initial) was less than 0.1 Area % and the “Area % (215 nm), peak 2, RRT 1.09” value ([2]; Week 2, 25/60) was 0.27 Area %. The “Area % (215 nm), peak 3, RRT 1.25” value ([2]; Week 2, 25/60) was 0.28 Area %, the “Area % (215 nm), peak 4, RRT 1.53” value ([2]; Week 2, 25/60) was 0.28 Area % and the “Area % (215 nm) … RRT 1.00” value ([2]; Week 2, 25/60) was 99.18 Area %. The “Total Impurities, Area % (215 nm)” value ([2]; Week 2, 25/60) was 0.82 Area %, the “Area % (215 nm), peak 2, RRT 1.09” value ([2]; Week 2, 40/75) was 0.31 Area % and the “Area % (215 nm), peak 3, RRT 1.25” value ([2]; Week 2, 40/75) was 0.35 Area %. The “Area % (215 nm), peak 4, RRT 1.53” value ([2]; Week 2, 40/75) was less than 0.1 Area %, the “Area % (215 nm) … RRT 1.00” value ([2]; Week 2, 40/75) was 99.35 Area % and the “Total Impurities, Area % (215 nm)” value ([2]; Week 2, 40/75) was 0.65 Area %. The “Area % (215 nm), peak 2, RRT 1.09” value ([2]; Week 2, 60 C.) was 0.25 Area %, the “Area % (215 nm), peak 3, RRT 1.25” value ([2]; Week 2, 60 C.) was 0.27 Area % and the “Area % (215 nm), peak 4, RRT 1.53” value ([2]; Week 2, 60 C.) was 0.27 Area %. The “Area % (215 nm) … RRT 1.00” value ([2]; Week 2, 60 C.) was 99.21 Area %, the “Total Impurities, Area % (215 nm)” value ([2]; Week 2, 60 C.) was 0.79 Area % and the “Area % (215 nm), peak 2, RRT 1.09” value ([2]; Week 4, 25/60) was less than 0.1 Area %. For the same molecule, the “Area % (215 nm), peak 3, RRT 1.25” value ([2]; Week 4, 25/60) was less than 0.1 Area %, the “Area % (215 nm), peak 4, RRT 1.53” value ([2]; Week 4, 25/60) was less than 0.1 Area % and the “Area % (215 nm) … RRT 1.00” value ([2]; Week 4, 25/60) was 99.90 Area %. For the same molecule, the “Total Impurities, Area % (215 nm)” value ([2]; Week 4, 25/60) was 0.01 Area %, the “Area % (215 nm), peak 2, RRT 1.09” value ([2]; Week 4, 40/75) was less than 0.1 Area % and the “Area % (215 nm), peak 3, RRT 1.25” value ([2]; Week 4, 40/75) was less than 0.1 Area %. The “Area % (215 nm), peak 4, RRT 1.53” value ([2]; Week 4, 40/75) was less than 0.1 Area %, the “Area % (215 nm) … RRT 1.00” value ([2]; Week 4, 40/75) was 99.86 Area % and the “Total Impurities, Area % (215 nm)” value ([2]; Week 4, 40/75) was 0.14 Area %. For the same molecule, the “Area % (215 nm), peak 2, RRT 1.09” value ([2]; Week 4, 60 C.) was less than 0.1 Area %, the “Area % (215 nm), peak 3, RRT 1.25” value ([2]; Week 4, 60 C.) was less than 0.1 Area % and the “Area % (215 nm), peak 4, RRT 1.53” value ([2]; Week 4, 60 C.) was less than 0.1 Area %. For the same molecule, the “Area % (215 nm) … RRT 1.00” value ([2]; Week 4, 60 C.) was 99.90 Area %, the “Total Impurities, Area % (215 nm)” value ([2]; Week 4, 60 C.) was less than 0.1 Area % and the “Area % (215 nm), peak 2, RRT 1.09” value ([2]; Week 8, 25/60) was less than 0.1 Area %. For the same molecule, the “Area % (215 nm), peak 3, RRT 1.25” value ([2]; Week 8, 25/60) was less than 0.1 Area %, the “Area % (215 nm), peak 4, RRT 1.53” value ([2]; Week 8, 25/60) was less than 0.1 Area % and the “Area % (215 nm) … RRT 1.00” value ([2]; Week 8, 25/60) was 99.97 Area %. For the same molecule, the “Total Impurities, Area % (215 nm)” value ([2]; Week 8, 25/60) was less than 0.1 Area %, the “Area % (215 nm), peak 2, RRT 1.09” value ([2]; Week 8, 40/75) was less than 0.1 Area % and the “Area % (215 nm), peak 3, RRT 1.25” value ([2]; Week 8, 40/75) was less than 0.1 Area %. For the same molecule, the “Area % (215 nm), peak 4, RRT 1.53” value ([2]; Week 8, 40/75) was less than 0.1 Area %, the “Area % (215 nm) … RRT 1.00” value ([2]; Week 8, 40/75) was 99.92 Area % and the “Total Impurities, Area % (215 nm)” value ([2]; Week 8, 40/75) was less than 0.1 Area %. For the same molecule, the “Area % (215 nm), peak 2, RRT 1.09” value ([2]; Week 8, 60 C.) was less than 0.1 Area %, the “Area % (215 nm), peak 3, RRT 1.25” value ([2]; Week 8, 60 C.) was less than 0.1 Area % and the “Area % (215 nm), peak 4, RRT 1.53” value ([2]; Week 8, 60 C.) was less than 0.1 Area %. For the same molecule, the “Area % (215 nm) … RRT 1.00” value ([2]; Week 8, 60 C.) was 99.97 Area %, the “Total Impurities, Area % (215 nm)” value ([2]; Week 8, 60 C.) was less than 0.1 Area % and the “Area % (215 nm), peak 2, RRT 1.09” value ([2]; Week 12, 25/60) was less than 0.1 Area %. For the same molecule, the “Area % (215 nm), peak 3, RRT 1.25” value ([2]; Week 12, 25/60) was less than 0.1 Area %, the “Area % (215 nm), peak 4, RRT 1.53” value ([2]; Week 12, 25/60) was less than 0.1 Area % and the “Area % (215 nm) … RRT 1.00” value ([2]; Week 12, 25/60) was 100.0 Area %. For the same molecule, the “Total Impurities, Area % (215 nm)” value ([2]; Week 12, 25/60) was less than 0.1 Area %, the “Area % (215 nm), peak 2, RRT 1.09” value ([2]; Week 12, 40/75) was less than 0.1 Area % and the “Area % (215 nm), peak 3, RRT 1.25” value ([2]; Week 12, 40/75) was less than 0.1 Area %.
